Test results reported in ChEMBL document CHEMBL6096641, “Discovery of the synergy between sulindac and NO expands the application of NSAIDs in cardiac complications” (Bioorg Med Chem, 2024).
Activity calls are given as the source filed them. The calls are words filed in the database; no cut-off is given here.

How the values were obtained:
H9c2 [1] = assay: Induction of NO release ratio in rat H9c2 cells under hypoxia condition by Griess reagent based microplate reader analysis relative to control; type: functional; design: concentration or dose not given beside the values
[2] = target: T1, Prostaglandin G/H synthase 2 (Homo sapiens, UniProt P35354); assay: Inhibition of COX-2 (unknown origin)
T1 sequence (P35354 whole entry): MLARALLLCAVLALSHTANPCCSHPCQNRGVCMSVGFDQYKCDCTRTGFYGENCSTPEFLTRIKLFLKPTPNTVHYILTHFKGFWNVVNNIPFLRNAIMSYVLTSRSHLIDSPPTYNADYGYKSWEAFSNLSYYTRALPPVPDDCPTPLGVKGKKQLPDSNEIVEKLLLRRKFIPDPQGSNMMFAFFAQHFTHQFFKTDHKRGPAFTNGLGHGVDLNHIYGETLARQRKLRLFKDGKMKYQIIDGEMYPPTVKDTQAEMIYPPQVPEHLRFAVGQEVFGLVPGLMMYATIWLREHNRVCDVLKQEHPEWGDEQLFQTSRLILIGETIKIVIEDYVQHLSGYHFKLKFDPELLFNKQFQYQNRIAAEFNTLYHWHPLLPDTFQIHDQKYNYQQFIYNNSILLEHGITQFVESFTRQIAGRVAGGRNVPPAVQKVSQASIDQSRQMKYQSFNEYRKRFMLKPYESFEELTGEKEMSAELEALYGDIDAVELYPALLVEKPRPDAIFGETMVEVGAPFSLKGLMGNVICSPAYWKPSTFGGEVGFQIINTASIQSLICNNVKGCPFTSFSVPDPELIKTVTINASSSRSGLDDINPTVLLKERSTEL

[3] = Toxicity in male Wistar rat assessed as growth curve at 10 mg/kg administered once a day for 3 days and measured after 6 days; type: organism-based; conditions: in vivo, 72 h, time 3 day
Rattus norvegicus [4] = assay: Cardioprotective activity against LPS and talc powder induced pericarditis male Wistar rat assessed as improvement in cardiac swelling at 10 mg/kg administered for 3 days; type: functional, organism-based; conditions: time 3.0 day
H9c2 [5] = assay: Upregulation of HO-1 expression in rat H9c2 cells at 1 uM under hypoxia by Western blotting analysis; type: functional, cell-based
H9c2 [6] = assay: Upregulation of VEFG protein expression level in rat H9c2 cells at 1 uM under hypoxia by Western blotting analysis; type: functional, cell-based
H9c2 [7] = assay: Induction of NO release in rat H9c2 cells under hypoxia condition at 1 to 50 uM incubated for 4 hrs by Griess reagent based microplate reader analysis; type: functional, cell-based; conditions: dose 1-50 µM
H9c2 [8] = assay: Downregulation of ACE protein expression in rat H9c2 cells at 1 uM under hypoxia by Western blotting analysis; type: functional, cell-based
Rattus norvegicus [9] = assay: Cardioprotective activity against LPS and talc powder induced pericarditis male Wistar rat assessed as improvement in pericardium thickening at 10 mg/kg administered for 3 days; type: functional, organism-based; conditions: time 3.0 day
[10] = Induction of H2S release by absorbance based analysis; type: functional

CC(C)Cc1ccc(C(C)C(=O)Oc2ccc(N(C)N=O)cc2)cc1 (configuration not stated) showed an Activity (H9c2 [1]) of 12.11% and an IC50 [2] of 451 µM.
For Cc1cccc(Nc2ccccc2C(=O)Oc2ccc(N(C)N=O)cc2)c1C, the Activity (H9c2 [1]) was 34.55%.
With CC1=C(CC(=O)O)c2cc(F)ccc2/C1=C\c1ccc([S+](C)[O-])cc1 (configuration not stated) [SULINDAC] the Activity [3] was “Non-toxic”, the Activity (Rattus norvegicus [4]) was “Active” and the Activity (H9c2 [5]) was “Active”. For the same molecule, the Activity (H9c2 [6]) was “inactive”, the Activity (H9c2 [7]) was “inactive” and the Activity (H9c2 [8]) was “Active”. The Activity (Rattus norvegicus [9]) was “Active” and the Activity [10] was 29.5 µg/L.
For COc1ccc2c(c1)c(CC(=O)Oc1ccc(N(C)N=O)cc1)c(C)n2C(=O)c1ccc(Cl)cc1, the Activity (H9c2 [1]) was 32.85%.
With CC(C(=O)Oc1ccc(N(C)N=O)cc1)c1cccc(C(=O)c2ccccc2)c1 (configuration not stated) the Activity (H9c2 [1]) was 2.23%.
With CCc1cccc2c3c([nH]c12)C(CC)(CC(=O)Oc1ccc(N(C)N=O)cc1)OCC3 (configuration not stated) the Activity (H9c2 [1]) was 1.01%.
For CC1=C(CC(=O)Oc2ccc(N(C)N=O)cc2)c2cc(F)ccc2/C1=C\c1ccc([S+](C)[O-])cc1 (configuration not stated), the Activity (H9c2 [1]) was 32.56%.
For CC(C(=O)Oc1ccc(N(C)N=O)cc1)c1cccc(Oc2ccccc2)c1 (configuration not stated), the Activity (H9c2 [1]) was 1.12%.
Work on COc1ccc2cc(C(C)C(=O)Oc3ccc(N(C)N=O)cc3)ccc2c1 (single isomer, unassigned) yielded an Activity (H9c2 [1]) of 44.95%.
